Test [1] concerns Clinical isolates that have been adapted to cause infection in mice. The test can be described thus: In vivo antibacterial protection, 7 day survival of infected mice. As to conditions: Ratio of Piperacillin vs. Inhibitor not given. More on the design: species or system mice strain CD-1.
Another test has as its system E. Coli GC2894 (Ampc). The test can be described thus: Antimicrobial susceptibility testing, microbroth dilution, piperacillin + inhibitor. The test is classed as cell-based. As to conditions: piperacillin combined with constant 4 ug/ml of inhibitor; 35° C. for 18 hours. Here is the method:
(§1) Antimicrobial susceptibility testing. The in vitro activities of the antibiotics were determined by the microbroth dilution method as recommended by the National Committee for Clinical Laboratory Standards (NCCLS). (NCCLS. 2000. Methods for Dilution Antimicrobial Susceptibility Tests for Bacteria That Grow Aerobically; Approved Standards: M7-A5, vol. 19. National Committe for Clinical Laboratory Standards, Villanova, Pa.). Mueller-Hinton II broth (MHBII) (BBL Cockeysville, Md.), was used for the testing procedure. Microtiter plates containing 50 μl per well of two-fold serial dilutions of piperacillin combined with a constant amount (4 ug/ml) of a B-lactamase inhibitor were inoculated with 50 μl of inoculum to yield the appropriate density (10^5 CFU/ml) in 100·I final volume. The plates were incubated for 18-22 hours at 35° C. in ambient air. […] The MIC data obtained by the above said procedure are enlisted in Table 2.
For orientation: In broth dilution the organism is exposed to a series of concentrations in liquid medium.

A further test deals with S. aureus GC2216. The description is as above. As to conditions: piperacillin combined with constant 4 ug/ml of inhibitor; 35° C. for 18 hours. It counts as cell-based. Here is the method: as §1
A further test relates to E. Coli GC2920 (IRT-2). Described as above. The test is classed as cell-based. To be noted: piperacillin combined with constant 4 ug/ml of inhibitor; 35° C. for 18 hours. Here is the method: as §1
A further test has as its system E. Coli GC2844. Described as above. It counts as cell-based. To be noted: piperacillin combined with constant 4 ug/ml of inhibitor; 35° C. for 18 hours. Here is the method:
as §1

In another test the test system is E. Coli GC2847 (TEM-1). The test is described as above. It counts as cell-based. As to conditions: piperacillin combined with constant 4 ug/ml of inhibitor; 35° C. for 18 hours. Here is the method:
as §1

The subject of another test is E. Coli GC22033. Described as above. The test is classed as cell-based. As to conditions: piperacillin combined with constant 4 ug/ml of inhibitor; 35° C. for 18 hours. Here is the method: as §1
Test [2] deals with S. Marcescens GC1781 Sme-1 + Ampc. Described as above. The test is classed as cell-based. As to conditions: piperacillin combined with constant 4 ug/ml of inhibitor; 35° C. for 18 hours. Here is the method: (§2) Antimicrobial susceptibility testing. The in vitro activities of the antibiotics were determined by the microbroth dilution method as recommended by the National Committee for Clinical Laboratory Standards (NCCLS). (NCCLS. 2000. Methods for Dilution Antimicrobial Susceptibility Tests for Bacteria That Grow Aerobically; Approved Standards: M7-A5, vol. 19. National Committe for Clinical Laboratory Standards, Villanova, Pa.). Mueller-Hinton II broth (MHBII) (BBL Cockeysville, Md.), was used for the testing procedure. Microtiter plates containing 50 μl per well of two-fold serial dilutions of piperacillin combined with a constant amount (4 ug/ml) of a B-lactamase inhibitor were inoculated with 50 μl of inoculum to yield the appropriate density (10^5 CFU/ml) in 100·I final volume. The plates were incubated for 18-22 hours at 35° C. in ambient air.

The test system of test [3] is P. aeruginos GC1764 (Ampc). The test is described as above. It counts as cell-based. As to conditions: piperacillin combined with constant 4 ug/ml of inhibitor; 35° C. for 18 hours. Here is the method:
as §2

The test system of the next test is E. Cloacae GC1477 (Ampc). The test is described as above. To be noted: piperacillin combined with constant 4 ug/ml of inhibitor; 35° C. for 18 hours. The test is classed as cell-based. Here is the method:
as §2

The next test has as its target class C enzyme AmpC (Enterobacter cloacae, UniProt P05364). Description: biochemical. More on the design: species or system Enterobacter cloaca. To be noted: enzyme 2.1 nM; 10 minutes preincubation at 25° C.; nitrocefin 50 μg/ml; pH 7.0; read-out: IC50 (nM) Class C AmpC.
Test [4] addresses class A β-lactamase TEM-1 (Escherichia coli, UniProt P62593). The test can be described thus: IC50 determination, β-lactamase inhibition (nitrocefin, spectrophotometric). It counts as biochemical, E. coli. As to conditions: enzyme 4.3 nM; 10 minutes preincubation at 25° C.; nitrocefin 50 μg/ml; pH 7.0.
For the next test, the target named is class B enzyme CcrA (Bacteroides fragilis, UniProt P25910). The test is described as above. It counts as biochemical. As to conditions: enzyme 1.2 nM; 10 minutes preincubation at 25° C.; nitrocefin 50 μg/ml; pH 7.0; read-out: IC50 (nM) Class B Ccr.
class B enzyme CcrA, sequence (P25910 19-249): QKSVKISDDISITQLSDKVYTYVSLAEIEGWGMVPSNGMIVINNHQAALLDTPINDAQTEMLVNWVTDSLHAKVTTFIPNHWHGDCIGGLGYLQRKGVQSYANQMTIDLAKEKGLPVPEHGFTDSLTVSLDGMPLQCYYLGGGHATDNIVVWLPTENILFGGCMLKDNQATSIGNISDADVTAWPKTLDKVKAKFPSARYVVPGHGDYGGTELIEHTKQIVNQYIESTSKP
Test [5] concerns the target class A β-lactamase Imi-1 (Enterobacter cloacae, UniProt Q46991). Described as above. It counts as biochemical. As to conditions: enzyme 7.1 nM; 10 minutes preincubation at 25° C.; nitrocefin 50 μg/ml; pH 7.0; read-out: IC50 (nM) Class A Imi.

As a reminder, the ED50 is the dose at which the effect has come halfway, by size or by number of responders. In general, IC50 refers to the concentration that gives 50% inhibition.

class A β-lactamase Imi-1, sequence (Q46991 28-292): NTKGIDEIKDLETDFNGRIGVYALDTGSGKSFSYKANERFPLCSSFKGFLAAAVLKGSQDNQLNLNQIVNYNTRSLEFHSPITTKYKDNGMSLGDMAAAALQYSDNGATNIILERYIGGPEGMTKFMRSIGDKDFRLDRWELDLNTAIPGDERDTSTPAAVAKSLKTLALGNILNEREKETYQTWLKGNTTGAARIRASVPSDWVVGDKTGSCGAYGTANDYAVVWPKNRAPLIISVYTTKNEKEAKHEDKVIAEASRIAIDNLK
class A β-lactamase TEM-1, sequence (P62593 24-286 limits assumed): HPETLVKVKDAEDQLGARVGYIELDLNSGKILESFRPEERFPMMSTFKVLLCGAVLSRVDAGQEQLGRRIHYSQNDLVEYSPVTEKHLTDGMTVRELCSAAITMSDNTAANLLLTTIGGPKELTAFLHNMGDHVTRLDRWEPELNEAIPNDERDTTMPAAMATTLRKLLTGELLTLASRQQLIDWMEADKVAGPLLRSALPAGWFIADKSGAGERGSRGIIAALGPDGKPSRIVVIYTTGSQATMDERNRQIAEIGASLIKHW
class C enzyme AmpC, sequence (P05364 21-381): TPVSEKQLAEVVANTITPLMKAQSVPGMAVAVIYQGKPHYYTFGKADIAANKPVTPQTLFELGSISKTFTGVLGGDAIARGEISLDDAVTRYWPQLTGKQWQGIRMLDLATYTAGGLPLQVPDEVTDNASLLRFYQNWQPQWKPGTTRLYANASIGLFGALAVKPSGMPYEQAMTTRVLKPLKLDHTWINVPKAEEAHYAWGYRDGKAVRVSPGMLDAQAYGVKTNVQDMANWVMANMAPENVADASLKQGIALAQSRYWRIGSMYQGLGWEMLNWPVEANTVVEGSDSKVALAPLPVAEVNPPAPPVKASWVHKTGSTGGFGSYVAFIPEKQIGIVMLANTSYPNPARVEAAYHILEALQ

Turning to `O=C([O-])C1=CS[C@@H]2/C(=C\c3cc4n(n3)CCCO4)C(=O)N12.[Na+]` [Example 36, (5R)(6Z)-6-(6,7-5H-Dihydropyrazolo[5,1-b]oxazin-2-ylmethylene)-7-oxo-4-thia-1-azabicyclo[3.2.0]hept-2-ene-2-carboxylic acid, sodium salt], in test [1], the ED50 came out at 90 mg/kg. Besides, the “Minimal Inhibitory Concentration E. Coli GC2894 (Ampc)” value in the test with E. Coli GC2894 (Ampc) is 2 µg/mL. Besides, in the test on S. aureus GC2216, the “Minimal Inhibitory Concentration S. aureus GC2216” value was determined as 0.06 µg/mL. Besides, the “Minimal Inhibitory Concentration E. Coli GC2920 (IRT-2)” value in the test with E. Coli GC2920 (IRT-2) was 2 µg/mL. For the same molecule, the “Minimal Inhibitory Concentration E. Coli GC2844” value in the test with E. Coli GC2844 was 2 µg/mL. Moreover, the “Minimal Inhibitory Concentration E. Coli GC2847 (TEM-1)” value in the test with E. Coli GC2847 (TEM-1) was 4 µg/mL. Further, in the test with E. Coli GC22033, the “Minimal Inhibitory Concentration E. Coli GC22033” value turned out to be 4 µg/mL. The “Minimal Inhibitory Concentration S. Marcescens GC1781 Sme-1 + Ampc” value in test [2] turned out to be 1 µg/mL. Moreover, the “Minimal Inhibitory Concentration P. aeruginos GC1764 (Ampc)” value in test [3] stood at 1 µg/mL. In addition, in the test on E. Cloacae GC1477 (Ampc), the “Minimal Inhibitory Concentration E. Cloacae GC1477 (Ampc)” value turned out to be 16 µg/mL. For the same molecule, the IC50 on class C enzyme AmpC stood at 4.5 nM; in [4] it was 6.3 nM; on class B enzyme CcrA, 140 nM; in [5] it was 413 nM.

For the origin of these results see patent US7812014B2, “Bicyclic 6-alkylidene-penems as β-lactamase inhibitors” (priority 2002, dated 2010).
